# Assay results taken from article PMC9603373 (Microbiology Spectrum, 2022).
# Marks after values point to notes of the source that are not given here.
# Experiments:
# [1] = system: vancomycin-resistant Enterococcus faecium isolate NTUH664 (DSE); type: cell-based; conditions: broth microdilution, cation-adjusted Mueller-Hinton broth + 50 μg/mL calcium
# Experimental: (§1) Blood culture isolates were obtained from a clinical microbiology laboratory. Enterococcus spp. were identified using the Vitek 2 identification system (bioMérieux Inc., La Balme les Grottes, France). The MIC of vancomycin was determined using a Sensititre GPN3F (Trek Diagnostics, West Sussex, England). […] We used cation-adjusted Mueller-Hinton broth (Becton, Dickinson, Le Pont-de-Claix, France) supplemented with 50 μg/mL calcium. The MIC breakpoints were based on the CLSI criteria of interpretation ([15]).
# [2] = system: vancomycin-resistant Enterococcus faecium isolate NTUH688 (DNSE); type: cell-based; conditions: broth microdilution, cation-adjusted Mueller-Hinton broth + 50 μg/mL calcium
# Experimental: as §1
# [3] = system: daptomycin-susceptible, dose-dependent Enterococcus faecium (NTUH664); assay: Rat infective endocarditis model, DSE; conditions: for Bacterial load in blood / Rate of sterile vegetation / Bacterial load of vegetation: Wistar rat IE, DSE MIC 0.5 mg/L; for Bacterial load in blood / Bacterial load of vegetation: mean (SD); for Bacterial load in blood / Rate of sterile vegetation: n = 3; for Bacterial load of vegetation: sacrifice 24 h after last dose, n = 3, detection limit 2 log10 CFU/g; for veg_sterile: flag 1/0;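 on all read-outs here: male Wistar rats with catheter-induced aortic valve endocarditis, dosed for 3 days, CFU counted in vegetation and blood, saline-treated infected controls, vegetation detection limit 2 log10 CFU/g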
# Experimental: Approval for animal use was obtained from the National Taiwan University Institutional Animal Care and Use Committee before the commencement of the experiments. Endocarditis was induced in male Wistar rats weighing ~330 g by using previously developed methodologies with slight modifications ([46]). To expose the right carotid artery for the placement of an intravascular catheter, the animals were anesthetized with 1 μL/g of Zoletil 50 (1 mg/mL) plus Rompun (23.32 mg/mL). A sterile polyethylene catheter (Intramedic PE-10; Clay Adams, Parsippany, NJ, USA) was inserted through a small incision and advanced 4 cm into the left ventricle. The catheter was ligated and left in place for the duration of the experiment. 24 h after the catheter was placed across the aortic valve, the bacterial inoculum, which was presuspended in saline, and 1 mL of 10^8 CFU/mL of VRE were administered intravenously via the tail vein. We evaluated the actual inoculum based on the CFU count. The rats received antibiotic treatment at 24 h or 48 h after the bacterial inoculation.
# The animals were treated for 3 days. A group of infected but phosphate-buffered saline-treated rats was used as a control. 24 h after the last treatment, the animals were sacrificed via anesthetic overdose. The aortic valve vegetation and 1 mL of blood were obtained aseptically from the sacrificed animals, weighed, and homogenized in 1 mL of phosphate-buffered saline. Serial dilutions of homogenized tissues were performed, and 100 μL of each dilution, including the undiluted sample, were plated on brain heart infusion agar to enumerate the bacteria. The animals were included in the final analysis only if they survived the entire therapy and if their catheters were found across the aortic valve in the left ventricle. The detection limit of the bacterial load of vegetation was 2 log10 CFU/g.
# [4] = DSE MIC 0.5, delay 24 h, 12 mg/kg iv, rat 1 of 3 (row order)
# [5] = DSE MIC 0.5, delay 24 h, 12 mg/kg iv, rat 2 of 3 (row order)
# [6] = DSE MIC 0.5, delay 24 h, 12 mg/kg iv, rat 3 of 3 (row order)
# [7] = DSE MIC 0.5, delay 24 h, 45 mg/kg sc, rat 1 of 3 (row order)
# [8] = DSE MIC 0.5, delay 24 h, 45 mg/kg sc, rat 2 of 3 (row order)
# [9] = DSE MIC 0.5, delay 24 h, 45 mg/kg sc, rat 3 of 3 (row order)
# [10] = DSE MIC 0.5, delay 24 h, 90 mg/kg sc, rat 1 of 3 (row order)
# [11] = DSE MIC 0.5, delay 24 h, 90 mg/kg sc, rat 2 of 3 (row order)
# [12] = DSE MIC 0.5, delay 24 h, 90 mg/kg sc, rat 3 of 3 (row order)
# [13] = DSE MIC 0.5, delay 48 h, 12 mg/kg iv, rat 1 of 3 (row order)
# [14] = DSE MIC 0.5, delay 48 h, 12 mg/kg iv, rat 2 of 3 (row order)
# [15] = DSE MIC 0.5, delay 48 h, 12 mg/kg iv, rat 3 of 3 (row order)
# [16] = DSE MIC 0.5, delay 48 h, 45 mg/kg sc, rat 1 of 3 (row order)
# [17] = DSE MIC 0.5, delay 48 h, 45 mg/kg sc, rat 2 of 3 (row order)
# [18] = DSE MIC 0.5, delay 48 h, 45 mg/kg sc, rat 3 of 3 (row order)
# [19] = DSE MIC 0.5, delay 48 h, 90 mg/kg sc, rat 1 of 3 (row order)
# [20] = DSE MIC 0.5, delay 48 h, 90 mg/kg sc, rat 2 of 3 (row order)
# [21] = DSE MIC 0.5, delay 48 h, 90 mg/kg sc, rat 3 of 3 (row order)
# [22] = 48 h from inoculation to treatment, 12 mg/kg/day i.v. 3 days, SD
# [23] = 48 h from inoculation to treatment, 45 mg/kg/day s.c. 3 days, SD
structure (smiles),measurement,setting,value
"CCCCCCCCCC(=O)N[C@@H](Cc1c[nH]c2ccccc12)C(=O)N[C@H](CC(N)=O)C(=O)N[C@@H](CC(=O)O)C(=O)N[C@@H]1C(=O)NCC(=O)N[C@@H](CCCN)C(=O)N[C@@H](CC(=O)O)C(=O)N[C@H](C)C(=O)N[C@@H](CC(=O)O)C(=O)NCC(=O)N[C@H](CO)C(=O)N[C@@H]([C@H](C)CC(=O)O)C(=O)N[C@@H](CC(=O)c2ccccc2N)C(=O)O[C@@H]1C [daptomycin, Daptomycin]",daptomycin MIC,[1],0.5 µg/mL
same,daptomycin MIC,[2],8 µg/mL
same,blood_cfu,[3]; [4],0
same,log_blood_cfu,[3]; [4],0
same,log_veg_cfu,[3]; [4],0
same,veg_cfu,[3]; [4],0
same,blood_cfu,[3]; [5],0
same,log_blood_cfu,[3]; [5],0
same,log_veg_cfu,[3]; [5],0
same,veg_cfu,[3]; [5],0
same,blood_cfu,[3]; [6],0
same,log_blood_cfu,[3]; [6],0
same,log_veg_cfu,[3]; [6],0
same,veg_cfu,[3]; [6],0
same,blood_cfu,[3]; [7],0
same,log_blood_cfu,[3]; [7],0
same,log_veg_cfu,[3]; [7],0
same,veg_cfu,[3]; [7],0
same,blood_cfu,[3]; [8],0
same,log_blood_cfu,[3]; [8],0
same,log_veg_cfu,[3]; [8],0
same,veg_cfu,[3]; [8],0
same,blood_cfu,[3]; [9],0
same,log_blood_cfu,[3]; [9],0
same,log_veg_cfu,[3]; [9],0
same,veg_cfu,[3]; [9],0
same,blood_cfu,[3]; [10],0
same,log_blood_cfu,[3]; [10],0
same,log_veg_cfu,[3]; [10],0
same,veg_cfu,[3]; [10],0
same,blood_cfu,[3]; [11],0
same,log_blood_cfu,[3]; [11],0
same,log_veg_cfu,[3]; [11],0
same,veg_cfu,[3]; [11],0
same,blood_cfu,[3]; [12],0
same,log_blood_cfu,[3]; [12],0
same,log_veg_cfu,[3]; [12],0
same,veg_cfu,[3]; [12],0
same,blood_cfu,[3]; [13],0
same,log_blood_cfu,[3]; [13],0
same,log_veg_cfu,[3]; [13],3.4
same,veg_cfu,[3]; [13],2500
same,blood_cfu,[3]; [14],0
same,log_blood_cfu,[3]; [14],0
same,log_veg_cfu,[3]; [14],3.26
same,veg_cfu,[3]; [14],1800
same,blood_cfu,[3]; [15],0
same,log_blood_cfu,[3]; [15],0
same,log_veg_cfu,[3]; [15],3.17
same,veg_cfu,[3]; [15],1480
same,blood_cfu,[3]; [16],0
same,log_blood_cfu,[3]; [16],0
same,log_veg_cfu,[3]; [16],4.66
same,veg_cfu,[3]; [16],45600
same,blood_cfu,[3]; [17],0
same,log_blood_cfu,[3]; [17],0
same,log_veg_cfu,[3]; [17],4.38
same,veg_cfu,[3]; [17],23900
same,blood_cfu,[3]; [18],0
same,log_blood_cfu,[3]; [18],0
same,log_veg_cfu,[3]; [18],0
same,veg_cfu,[3]; [18],0
same,blood_cfu,[3]; [19],0
same,log_blood_cfu,[3]; [19],0
same,log_veg_cfu,[3]; [19],0
same,veg_cfu,[3]; [19],0
same,blood_cfu,[3]; [20],0
same,log_blood_cfu,[3]; [20],0
same,log_veg_cfu,[3]; [20],0
same,veg_cfu,[3]; [20],0
same,blood_cfu,[3]; [21],0
same,log_blood_cfu,[3]; [21],0
same,log_veg_cfu,[3]; [21],0
same,veg_cfu,[3]; [21],0
same,Bacterial load in blood,"[3]; 24 h from inoculation to treatment, 12 mg/kg/day i.v. 3 days, SD",0 (0) log10 CFU/mL
same,Rate of sterile vegetation,"[3]; 24 h from inoculation to treatment, 12 mg/kg/day i.v. 3 days",100
same,Bacterial load in blood,"[3]; 24 h from inoculation to treatment, 45 mg/kg/day s.c. 3 days, SD",0 (0) log10 CFU/mL
same,Rate of sterile vegetation,"[3]; 24 h from inoculation to treatment, 45 mg/kg/day s.c. 3 days",100
same,Bacterial load in blood,"[3]; 24 h from inoculation to treatment, 90 mg/kg/day s.c. 3 days, SD",0 (0) log10 CFU/mL
same,Rate of sterile vegetation,"[3]; 24 h from inoculation to treatment, 90 mg/kg/day s.c. 3 days",100
same,Bacterial load in blood,[3]; [22],0 (0) log10 CFU/mL
same,Rate of sterile vegetation,"[3]; 48 h from inoculation to treatment, 12 mg/kg/day i.v. 3 days",0
same,Bacterial load of vegetation,[3]; [22],3.27 (0.11) log10 CFU/g
same,Bacterial load in blood,[3]; [23],0 (0) log10 CFU/mL
same,Rate of sterile vegetation,"[3]; 48 h from inoculation to treatment, 45 mg/kg/day s.c. 3 days",0
same,Bacterial load of vegetation,[3]; [23],4.75 (0.42)^g log10 CFU/g
same,Bacterial load in blood,"[3]; 48 h from inoculation to treatment, 90 mg/kg/day s.c. 3 days, SD",0 (0) log10 CFU/mL
same,Rate of sterile vegetation,"[3]; 48 h from inoculation to treatment, 90 mg/kg/day s.c. 3 days",100
same,Bacterial load of vegetation,"[3]; 48 h from inoculation to treatment, 90 mg/kg/day s.c. 3 days, 90 mg/kg/day",0 log10 CFU/g
same,Bacterial load of vegetation,"[3]; 48 h from inoculation to treatment, 90 mg/kg/day s.c. 3 days, 90 mg/kg/day, SD","0 (0)^h^,^i log10 CFU/g"
same,veg_sterile,[3]; [5],1
same,veg_sterile,[3]; [6],1
same,veg_sterile,[3]; [7],1
same,veg_sterile,[3]; [8],1
same,veg_sterile,[3]; [9],1
same,veg_sterile,[3]; [10],1
same,veg_sterile,[3]; [11],1
same,veg_sterile,[3]; [12],1
same,veg_sterile,[3]; [13],0
same,veg_sterile,[3]; [14],0
same,veg_sterile,[3]; [15],0
same,veg_sterile,[3]; [16],0
same,veg_sterile,[3]; [17],0
same,veg_sterile,[3]; [18],1
same,veg_sterile,[3]; [19],1
same,veg_sterile,[3]; [20],1
same,veg_sterile,[3]; [21],1
